According to PMC6315005, “5F-Cumyl-PINACA in ‘e-liquids’ for electronic cigarettes: comprehensive characterization of a new type of synthetic cannabinoid in a trendy product including investigations on the in vitro and in vivo phase I metabolism of 5F-Cumyl-PINACA and its non-fluorinated analog Cumyl-PINACA” (Forensic Toxicology, 2018):
Like-named read-outs stand apart in the source and are kept apart here.

Experiments:
CB1 receptors = test system: CB1 receptors; design: method as in PMID 28792725; details: mouse AtT-20 neuroblastoma cells, membrane potential; cited from earlier work
CB2 receptors = test system: CB2 receptors; design: method as in PMID 28792725; details: mouse AtT-20 neuroblastoma cells, membrane potential; cited from earlier work
CB1 receptor = test system: CB1 receptor; design: method as in PMID 29367862; details: [35S]GTPγS binding; cited from earlier work
CB2 receptor = test system: CB2 receptor; design: method as in PMID 29367862; details: [35S]GTPγS binding; cited from earlier work
CB1 = biological target: T1, CB1 (Homo sapiens, UniProt P21554); assay: cAMP biosensor assay with CB1 as target (DiscoveRx); format: cell-based; details: for Curve top: agonist format, 20 µM forskolin; for Emax: read-out: Maximum response (compared to CP-55,940)
T1 construct: purchased DiscoveRx (Fremont, CA, USA)
T1 sequence (P21554 whole entry): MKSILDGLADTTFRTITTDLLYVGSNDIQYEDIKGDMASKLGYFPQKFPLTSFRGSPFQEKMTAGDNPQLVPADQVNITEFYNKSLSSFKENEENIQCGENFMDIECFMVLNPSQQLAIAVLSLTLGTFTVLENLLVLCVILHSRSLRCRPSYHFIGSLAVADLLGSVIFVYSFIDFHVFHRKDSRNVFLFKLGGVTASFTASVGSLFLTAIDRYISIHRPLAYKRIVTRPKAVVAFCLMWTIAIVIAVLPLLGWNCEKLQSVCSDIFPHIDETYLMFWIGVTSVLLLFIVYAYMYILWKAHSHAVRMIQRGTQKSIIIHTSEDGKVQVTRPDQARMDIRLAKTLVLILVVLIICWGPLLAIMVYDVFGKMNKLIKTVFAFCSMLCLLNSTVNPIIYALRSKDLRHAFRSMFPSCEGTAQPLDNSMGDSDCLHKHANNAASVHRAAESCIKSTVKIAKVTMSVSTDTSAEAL
Procedure: Each compound was tested in duplicates; to induce response, 20 µM forskolin was used.

[1] = test system: pooled human liver microsomes (pHLM); assay: Pooled human liver microsome assay (phase I metabolism); format: in vitro ADME; details: 60 min, 37 °C
Procedure: (§1) The LC–MS/MS system used for the analysis of the urine and the pHLM assay samples consisted of a Nexera X2 UHPLC (Shimadzu) coupled to a QTRAP™ 5500 triple quadrupole linear ion trap instrument (SCIEX) equipped with the TurboIonSpray® probe. […] The total flow rate was 0.4 mL/min. The autosampler and the column oven temperatures were set to 10 and 40 °C, respectively.
(§2) The MRM ion transitions of the parent compounds were optimized carefully in positive ionization mode (see Supplementary Tables S1 and S2). Enhanced product ion (EPI) scan experiments were performed using hypothetical masses of anticipated phase I metabolites, and the obtained spectra were compared to the EPI spectrum of the respective parent compound. In order to detect unexpected metabolites not covered by the EPI scan approach, precursor ion scan experiments for the characteristic fragment ion at m/z 145 and for the m/z of its modified analogs 161 (monohydroxylation), 177 (dihydroxylation) and 179 (dihydrodiol) were conducted. The relative abundances of the characterized metabolites in the urine samples obtained during the self-administration study were compared using an MRM method comprising the most abundant ion transitions of each metabolite (see Supplementary Fig. S1 and Table S3).
To investigate the tentative phase I metabolism of Cumyl-PINACA and 5F-Cumyl-PINACA (extracted from e-liquids), in vitro experiments with pHLM were performed in triplicates. A 0.5-µL volume of a substrate solution ([…] in acetonitrile) was added to 49.5 µL of a reaction mixture consisting of 2.5 µL pHLM, 2.5 µL NADPH regenerating solution A, 0.5 µL NADPH regenerating solution B, 5.0 µL SOD, 10 µL 0.5 M phosphate buffer, and 29 µL deionized water. Incubation was performed for 60 min at 37 °C. The reaction was terminated by the addition of ice-cold acetonitrile, and the supernatant was analyzed after 1:10 dilution with mobile phase A/B (50:50, v/v). Blank pHLM samples were processed in the same way serving as negative controls.

[2] = Authentic urine sample, phase I metabolites of 5F-Cumyl-PINACA (LC-MS/MS); format: in vivo, human; details: for Urine [Peak area]: 5F-Cumyl-PINACA consumption
Procedure: as §1, §2
The analysis of in vivo metabolism of 5F-Cumyl-PINACA in an authentic urine sample was conducted in accordance with the client’s inquest.
(§3) In order to cleave conjugates, 0.5 mL of an urine sample was incubated at 45 °C for 1 h after addition of 0.5 mL phosphate buffer (pH 6) and 30 µL β-glucuronidase. In a next step, 1.5 mL acetonitrile and 0.5 mL ammonium formate ([…]) were added. After shaking and centrifugation, 1 mL of the acetonitrile phase was transferred into a glass vial and evaporated to dryness under a gentle nitrogen stream at 40 °C. The residue was reconstituted in 200 µL mobile phase A/B (50:50, v/v) directly before LC–MS/MS analysis. Blank urine samples were prepared serving as negative controls.

[3] = Self-administration study, phase I metabolites of Cumyl-PINACA in urine (LC-MS/MS); format: in vivo, human; details: for peak area in urine: normalized to creatinine 100 mg/dL
Procedure: as §1, §2
To investigate the in vivo phase I metabolism of Cumyl-PINACA, one of the authors (75 kg person) ingested 0.6 mg Cumyl-PINACA orally. In addition to blank samples taken prior to ingestion, serum and urine samples were collected repeatedly over periods of 17 and 31 h after ingestion, respectively. All samples were stored at − 20 °C until analysis. In Germany, approval by an ethics committee is not required for scientific self-experiments.
as §3

[4] = as above; format: in vivo, human; details: normalized to creatinine 100 mg/dL
[5] = pHLM incubation of 5F-Cumyl-PINACA
[6] = 6 h after 0.6 mg Cumyl-PINACA oral
[7] = 16 h after 0.6 mg Cumyl-PINACA oral
[8] = 20.3 h after 0.6 mg Cumyl-PINACA oral
[9] = 22.3 h after 0.6 mg Cumyl-PINACA oral
[10] = 26.3 h after 0.6 mg Cumyl-PINACA oral
[11] = 29.3 h after 0.6 mg Cumyl-PINACA oral
[12] = pHLM incubation of Cumyl-PINACA
[13] = 37.2 h after 0.6 mg Cumyl-PINACA oral

## CCCCCn1cc(C(=O)NC(C)(C)c2ccccc2)c2ccccc21 [Cumyl-PICA, reference compound]
CB1 receptors
  potency of CB1 receptor activation compared to CP-55,940: greater potency than CP-55,940
CB2 receptors
  potency of CB2 receptor activation compared to CP-55,940: greater potency than CP-55,940
CB1 receptor
  CB1 activity compared to CP-55,940: less activities as compared to CP-55,940
CB2 receptor
  CB2 activity compared to CP-55,940: less activities as compared to CP-55,940

## CCCCCn1nc(C(=O)NC(C(N)=O)C(C)C)c2ccccc21 (centres unmarked) [AB-PINACA]
CB1
  EC50: 1.74 nM
  Curve top: 92.3
CB1; control ligand CP-55,940
  Emax: 95.3%

## CC(C)C(NC(=O)c1nn(Cc2ccc(F)cc2)c2ccccc12)C(N)=O (centres unmarked) [AB-FUBINACA]
CB1
  EC50: 0.89 nM
  Curve top: 97.4
CB1; control ligand CP-55,940
  Emax: 97.8%

## CC(C)(NC(=O)c1nn(CCCCCF)c2c1=CC(O)C(O)C=2)c1ccccc1 (centres unmarked) [B01]
[1]; [5]
  pHLM [Peak area]: 7.0E+06
[2]
  Urine [Peak area]: 5.6E+04

## CCCCCn1cc(C(=O)c2cccc3ccccc23)c2ccccc21 [JWH-018]
CB1
  EC50: 1.13 nM
  Curve top: 97.6
CB1; control ligand CP-55,940
  Emax: 97.4%

## CC(C)(NC(=O)c1nn(CCCCC(=O)O)c2ccccc12)c1ccccc1 [A07]
[3]; [6]
  peak area in urine: 8.4E+04
[3]; [7]
  peak area in urine: 1.1E+05
[3]; [8]
  peak area in urine: 5.2E+04
[3]; [9]
  peak area in urine: 6.0E+04
[3]; [10]
  peak area in urine: 4.2E+04
[3]; [11]
  peak area in urine: 2.1E+04
[1]; [5]
  pHLM [Peak area]: 9.3E+06
[1]; [12]
  pHLM [Peak area]: 2.9E+06
[2]
  Urine [Peak area]: 1.8E+05
[4]; [13]
  peak area in urine: 1.7E+04

## CC(C)(NC(=O)c1cn(CC2CCCCC2)c2ccccc12)c1ccccc1 [Cumyl-CHMICA]
CB1 receptors
  potency of CB1 receptor activation compared to CP-55,940: greater potency than CP-55,940
CB2 receptors
  potency of CB2 receptor activation compared to CP-55,940: greater potency than CP-55,940

## O=C(c1cccc2ccccc12)c1cn(CCCCCF)c2ccccc12 [AM-2201]
CB1
  EC50: 0.45 nM
  Curve top: 103
CB1; control ligand CP-55,940
  Emax: 101%

## CCCCn1cc(C(=O)NC(C)(C)c2ccccc2)c2ccccc21 [Cumyl-BICA]
CB1 receptors
  potency of CB1 receptor activation compared to CP-55,940: greater potency than CP-55,940
CB2 receptors
  potency of CB2 receptor activation compared to CP-55,940: greater potency than CP-55,940

## O=C(c1cccc2ccccc12)c1nn(CCCCCF)c2ccccc12 [THJ-2201]
CB1
  EC50: 1.68 nM
  Curve top: 95.6
CB1; control ligand CP-55,940
  Emax: 91.9%

## CCCCCn1c2ccccc2c2cc(C(=O)c3cccc4ccccc34)ccc21 [EG-018]
CB1
  Curve top: 74.3
CB1; control ligand CP-55,940
  Emax: 71.8%

## COC(=O)C(NC(=O)c1cn(CC2CCCCC2)c2ccccc12)C(C)(C)C (centres unmarked) [MDMB-CHMICA]
CB1
  EC50: 0.14 nM
  Curve top: 94.8
CB1; control ligand CP-55,940
  Emax: 94.6%

## CC(C)(NC(=O)c1nn(CC2CCCCC2)c2ccccc12)c1ccccc1
CB1 receptors
  potency of CB1 receptor activation compared to CP-55,940: greater potency than CP-55,940
CB2 receptors
  potency of CB2 receptor activation compared to CP-55,940: greater potency than CP-55,940

## CC(C)(NC(=O)c1nn(CCCCCO)c2ccccc12)c1ccccc1 [A08]
[3]; 0.6 mg Cumyl-PINACA oral
  detectable in urine after self-administration: over 8 days
  relative abundance in urine samples: most abundant metabolite in all analyzed urine samples
[3]; [6]
  peak area in urine: 1.7E+07
[3]; [7]
  peak area in urine: 4.1E+06
[3]; [8]
  peak area in urine: 1.4E+06
[3]; [9]
  peak area in urine: 1.5E+06
[3]; [10]
  peak area in urine: 7.7E+05
[3]; [11]
  peak area in urine: 5.7E+05
[1]; [5]
  pHLM [Peak area]: 6.0E+07
[1]; [12]
  pHLM [Peak area]: 7.3E+07
[2]
  abundance in authentic urine sample: high abundance
  Urine [Peak area]: 2.2E+05
[4]; 3.2 h after 0.6 mg Cumyl-PINACA oral
  peak area in urine: 1.1E+06
[4]; [13]
  peak area in urine: 4.5E+05
[4]; 39 h after 0.6 mg Cumyl-PINACA oral
  peak area in urine: 2.9E+05
[4]; 88.5 h after 0.6 mg Cumyl-PINACA oral
  peak area in urine: 2.6E+04
[4]; 110.3 h after 0.6 mg Cumyl-PINACA oral
  peak area in urine: 6.1E+04
[4]; 134 h after 0.6 mg Cumyl-PINACA oral
  peak area in urine: 2.7E+04
[4]; 157.5 h after 0.6 mg Cumyl-PINACA oral
  peak area in urine: 1.5E+04
[4]; 182.5 h after 0.6 mg Cumyl-PINACA oral
  peak area in urine: 1.3E+04
[4]; 205.5 h after 0.6 mg Cumyl-PINACA oral
  peak area in urine: 1.1E+04

## CC(C)(NC(=O)c1nn(Cc2ccc(F)cc2)c2ccccc12)c1ccccc1 [Cumyl-FUBINACA]
CB1 receptors
  potency of CB1 receptor activation compared to CP-55,940: greater potency than CP-55,940
CB2 receptors
  potency of CB2 receptor activation compared to CP-55,940: greater potency than CP-55,940

## CC(C)C(NC(=O)c1nn(CC2CCCCC2)c2ccccc12)C(N)=O (centres unmarked) [AB-[…]]
CB1
  EC50: 0.28 nM
  Curve top: 94.8
  Emax: 94.8%

## CCCCn1nc(C(=O)NC(C)(C)c2ccccc2)c2ccccc21 [Cumyl-BINACA]
CB1 receptors
  potency of CB1 receptor activation compared to CP-55,940: greater potency than CP-55,940
CB2 receptors
  potency of CB2 receptor activation compared to CP-55,940: greater potency than CP-55,940

## CC(C)(NC(=O)c1cn(CCCCCF)c2ccccc12)c1ccccc1 [5F-Cumyl-PICA, reference compound]
CB1 receptors
  potency of CB1 receptor activation compared to CP-55,940: greater potency than CP-55,940
CB2 receptors
  potency of CB2 receptor activation compared to CP-55,940: greater potency than CP-55,940
CB1 receptor
  CB1 activity compared to CP-55,940: less activities as compared to CP-55,940
CB2 receptor
  CB2 activity compared to CP-55,940: less activities as compared to CP-55,940
